This passage reports inhibition results from publication PMC6326728, “eIF2B activator prevents neurological defects caused by a chronic integrated stress response” (eLife, 2019).

SMILES strings stand for the structures.

Common to all, as to assay: biochemical
What all share (design): CEREP panel radioligand binding displacement, % inhibition of control specific binding by 10 uM 2BAct

One experiment addresses T1, M3 (h) (Homo sapiens, UniProt P20309).
T1 construct: gene CHRM3
The note with it: Type=Antagonist radioligand; read-out: % inhibition of Control specific binding. The protocol:
(§1) Supplementary file elife-42940-supp1.xlsx: Supplementary file 1. (A) Binding of 2BAct at 10 μM to the CEREP panel of receptors/enzymes/ion channels. Compound binding was calculated as a % inhibition of the binding of a radioactively labeled ligand specific for each target. Results showing inhibition or stimulation higher than 50% are considered to represent significant effects of the test compound. (B) Pharmacokinetic data from 2BAct dosing in mice. (C) GO Biological Processes identified by enrichment analysis of RNA-seq data. (D) List of genes used for enrichment analysis of scRNA-seq data.

In another experiment the target is T2, a2B (h) (Homo sapiens, UniProt P18089).
T2 construct: gene ADRA2B
The note with it: Type=Antagonist radioligand; read-out: % inhibition of Control specific binding. Here is the method:
as §1

The next experiment deals with T3, NK2 (h) (Homo sapiens, UniProt P21452).
T3 construct: gene TACR2
The note with it: Type=Agonist radioligand; read-out: % inhibition of Control specific binding. The protocol:
as §1

The target in the next experiment is T4, CCK1(CCKA) (h) (Homo sapiens, UniProt P32238).
T4 construct: gene CCKAR
As to conditions: Type=Agonist radioligand; read-out: % inhibition of Control specific binding. The protocol:
as §1

Another experiment has as its target T5, EP2 (h) (Homo sapiens, UniProt P43116).
T5 construct: gene PTGER2
The note with it: Type=Agonist radioligand; read-out: % inhibition of Control specific binding. The protocol: as §1

The next experiment deals with T6, CGRP (h) (Homo sapiens, UniProt Q16602).
T6 construct: gene CALCRL
The note with it: Type=Agonist radioligand; read-out: % inhibition of Control specific binding. Here is the method: as §1

The next experiment deals with T7, 5-HT2A (h) (Homo sapiens, UniProt P28223).
T7 construct: gene HTR2A
The note with it: Type=Antagonist radioligand; read-out: % inhibition of Control specific binding. The protocol:
as §1

The target of the next experiment is T8, V1a (h) (Homo sapiens, UniProt P37288).
T8 construct: gene AVPR1A
The note with it: Type=Agonist radioligand; read-out: % inhibition of Control specific binding. Here is the method:
as §1

Another experiment has as its target T9, k (KOP) (Rattus norvegicus, UniProt P34975).
T9 construct: gene Oprk1
As to conditions: Type=Agonist radioligand; read-out: % inhibition of Control specific binding. The protocol:
as §1

A further experiment has as its target T10, 5-HT3 (h) (Homo sapiens, UniProt P46098).
T10 construct: gene HTR3A
As to conditions: Type=Antagonist radioligand; read-out: % inhibition of Control specific binding. The protocol: as §1

The target in a further experiment is T11, m (MOP) (h) (Homo sapiens, UniProt P35372).
T11 construct: gene OPRM1
As to conditions: Type=Agonist radioligand; read-out: % inhibition of Control specific binding. Here is the method:
as §1

The target in the next experiment is T12, ET-B (h) (Homo sapiens, UniProt P24530).
T12 construct: gene EDNRB
As to conditions: Type=Agonist radioligand; read-out: % inhibition of Control specific binding. Here is the method: as §1

In the next experiment the target is T13, M2 (h) (Homo sapiens, UniProt P08172).
T13 construct: gene CHRM2
As to conditions: Type=Antagonist radioligand; read-out: % inhibition of Control specific binding. Here is the method:
as §1

The next experiment addresses T14, A2a (h) (Homo sapiens, UniProt P29274).
T14 construct: gene ADORA2A
The note with it: Type=Agonist radioligand; read-out: % inhibition of Control specific binding. The protocol: as §1

The next experiment has as its target T15, A1 (h) (Homo sapiens, UniProt P30542).
T15 construct: gene ADORA1
As to conditions: Type=Antagonist radioligand; read-out: % inhibition of Control specific binding. Here is the method:
as §1

Another experiment concerns the target T16, BZD (peripheral) (Rattus norvegicus, UniProt P16257).
T16 construct: gene Tspo; peripheral
The note with it: Type=Antagonist radioligand; read-out: % inhibition of Control specific binding. Here is the method:
as §1

For a further experiment, the target named is T17, M1 (h) (Homo sapiens, UniProt P11229).
T17 construct: gene CHRM1
As to conditions: Type=Antagonist radioligand; read-out: % inhibition of Control specific binding. The protocol:
as §1

In the next experiment the target is T18, Estrogen ER alpha (h) (Homo sapiens, UniProt P03372).
T18 construct: gene ESR1
The note with it: Type=Agonist radioligand; read-out: % inhibition of Control specific binding. Here is the method: as §1

The target in a further experiment is T19, MAO-A (Rattus norvegicus, UniProt P21396).
T19 construct: gene Maoa
As to conditions: Type=Antagonist radioligand; read-out: % inhibition of Control specific binding. The protocol: as §1

The target of another experiment is AR (h) (Homo sapiens, UniProt P10275). The note with it: Type=Agonist radioligand; read-out: % inhibition of Control specific binding. The protocol:
as §1

The target in a further experiment is T20, d (DOP) (h) (Homo sapiens, UniProt P41143).
T20 construct: gene OPRD1
As to conditions: Type=Agonist radioligand; read-out: % inhibition of Control specific binding. The protocol: as §1

The target in another experiment is T21, b2 (h) (Homo sapiens, UniProt P07550).
T21 construct: gene ADRB2
The note with it: Type=Agonist radioligand; read-out: % inhibition of Control specific binding. Here is the method:
as §1

T18 sequence (P03372 whole entry): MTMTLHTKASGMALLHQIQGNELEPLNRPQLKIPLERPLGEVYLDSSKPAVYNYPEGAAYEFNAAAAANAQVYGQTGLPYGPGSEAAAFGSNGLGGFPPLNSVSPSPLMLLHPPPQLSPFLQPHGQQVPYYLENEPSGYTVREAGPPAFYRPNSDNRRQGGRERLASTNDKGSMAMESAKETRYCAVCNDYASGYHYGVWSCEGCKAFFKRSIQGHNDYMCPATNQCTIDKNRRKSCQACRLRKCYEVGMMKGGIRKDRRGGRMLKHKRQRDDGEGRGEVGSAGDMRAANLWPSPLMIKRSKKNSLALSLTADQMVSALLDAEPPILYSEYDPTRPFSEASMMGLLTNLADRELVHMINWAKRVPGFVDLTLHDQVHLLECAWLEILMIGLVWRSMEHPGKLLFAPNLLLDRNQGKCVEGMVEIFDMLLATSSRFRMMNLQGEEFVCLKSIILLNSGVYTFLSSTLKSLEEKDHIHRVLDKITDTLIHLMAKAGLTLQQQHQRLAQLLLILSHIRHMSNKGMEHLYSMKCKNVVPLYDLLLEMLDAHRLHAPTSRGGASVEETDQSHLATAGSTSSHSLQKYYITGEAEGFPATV
T14 sequence (P29274 whole entry): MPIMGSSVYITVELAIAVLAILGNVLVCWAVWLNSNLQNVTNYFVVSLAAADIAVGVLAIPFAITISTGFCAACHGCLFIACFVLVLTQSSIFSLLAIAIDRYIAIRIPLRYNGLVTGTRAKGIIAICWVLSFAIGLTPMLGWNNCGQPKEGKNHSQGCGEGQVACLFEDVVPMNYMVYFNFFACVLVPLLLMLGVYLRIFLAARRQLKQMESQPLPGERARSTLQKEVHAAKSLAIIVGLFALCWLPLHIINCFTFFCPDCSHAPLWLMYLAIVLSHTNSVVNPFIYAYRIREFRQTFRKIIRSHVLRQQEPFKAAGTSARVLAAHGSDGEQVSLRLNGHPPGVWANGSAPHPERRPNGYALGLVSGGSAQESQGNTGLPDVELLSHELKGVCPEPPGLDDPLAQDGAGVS
T21 sequence (P07550 whole entry): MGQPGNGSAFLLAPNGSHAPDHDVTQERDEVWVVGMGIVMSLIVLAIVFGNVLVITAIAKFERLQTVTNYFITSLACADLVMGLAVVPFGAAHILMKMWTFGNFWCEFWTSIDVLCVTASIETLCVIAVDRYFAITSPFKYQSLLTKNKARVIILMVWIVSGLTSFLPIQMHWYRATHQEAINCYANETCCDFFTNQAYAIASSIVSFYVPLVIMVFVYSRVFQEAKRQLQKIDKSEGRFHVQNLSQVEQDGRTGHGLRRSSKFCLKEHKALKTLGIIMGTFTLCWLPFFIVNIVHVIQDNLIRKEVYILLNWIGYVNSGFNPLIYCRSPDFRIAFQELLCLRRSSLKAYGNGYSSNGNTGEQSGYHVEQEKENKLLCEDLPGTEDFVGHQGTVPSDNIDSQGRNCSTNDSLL
T20 sequence (P41143 whole entry): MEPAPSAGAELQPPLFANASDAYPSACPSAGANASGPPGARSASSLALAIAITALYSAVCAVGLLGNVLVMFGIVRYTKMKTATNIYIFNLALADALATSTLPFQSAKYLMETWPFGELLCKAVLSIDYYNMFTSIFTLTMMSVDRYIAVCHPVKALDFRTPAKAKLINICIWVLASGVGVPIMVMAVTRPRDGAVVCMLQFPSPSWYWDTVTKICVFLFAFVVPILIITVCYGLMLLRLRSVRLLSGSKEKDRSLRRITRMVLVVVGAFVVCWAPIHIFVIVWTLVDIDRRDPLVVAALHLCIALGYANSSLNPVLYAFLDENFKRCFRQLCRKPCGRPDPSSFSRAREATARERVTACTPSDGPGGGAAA
T3 sequence (P21452 whole entry): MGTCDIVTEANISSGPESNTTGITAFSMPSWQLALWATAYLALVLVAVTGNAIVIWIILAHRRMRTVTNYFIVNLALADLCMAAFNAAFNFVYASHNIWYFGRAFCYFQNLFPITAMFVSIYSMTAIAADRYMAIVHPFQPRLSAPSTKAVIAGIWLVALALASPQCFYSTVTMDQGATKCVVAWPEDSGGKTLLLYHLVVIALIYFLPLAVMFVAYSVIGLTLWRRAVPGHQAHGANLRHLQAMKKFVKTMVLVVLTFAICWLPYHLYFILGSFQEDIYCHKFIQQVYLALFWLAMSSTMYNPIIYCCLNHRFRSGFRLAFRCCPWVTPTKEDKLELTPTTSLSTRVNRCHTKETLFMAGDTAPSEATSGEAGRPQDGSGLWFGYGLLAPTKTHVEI
T6 sequence (Q16602 whole entry): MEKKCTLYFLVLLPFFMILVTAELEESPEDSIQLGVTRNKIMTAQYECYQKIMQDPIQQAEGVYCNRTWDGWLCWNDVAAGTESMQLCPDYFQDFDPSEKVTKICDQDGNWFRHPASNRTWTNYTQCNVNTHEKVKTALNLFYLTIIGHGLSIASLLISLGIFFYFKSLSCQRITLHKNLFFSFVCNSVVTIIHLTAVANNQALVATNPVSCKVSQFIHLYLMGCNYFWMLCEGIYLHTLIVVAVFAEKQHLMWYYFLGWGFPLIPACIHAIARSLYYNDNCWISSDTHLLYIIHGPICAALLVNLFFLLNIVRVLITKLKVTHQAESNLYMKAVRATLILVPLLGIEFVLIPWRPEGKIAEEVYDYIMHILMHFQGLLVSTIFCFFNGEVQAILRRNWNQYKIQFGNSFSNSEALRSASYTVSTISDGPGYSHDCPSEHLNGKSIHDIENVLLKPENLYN
T6 sequence (O60894 whole entry partner): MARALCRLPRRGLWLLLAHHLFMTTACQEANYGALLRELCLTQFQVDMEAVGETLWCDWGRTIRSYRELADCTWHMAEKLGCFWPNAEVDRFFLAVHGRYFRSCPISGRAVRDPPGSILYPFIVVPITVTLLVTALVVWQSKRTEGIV
T5 sequence (P43116 whole entry): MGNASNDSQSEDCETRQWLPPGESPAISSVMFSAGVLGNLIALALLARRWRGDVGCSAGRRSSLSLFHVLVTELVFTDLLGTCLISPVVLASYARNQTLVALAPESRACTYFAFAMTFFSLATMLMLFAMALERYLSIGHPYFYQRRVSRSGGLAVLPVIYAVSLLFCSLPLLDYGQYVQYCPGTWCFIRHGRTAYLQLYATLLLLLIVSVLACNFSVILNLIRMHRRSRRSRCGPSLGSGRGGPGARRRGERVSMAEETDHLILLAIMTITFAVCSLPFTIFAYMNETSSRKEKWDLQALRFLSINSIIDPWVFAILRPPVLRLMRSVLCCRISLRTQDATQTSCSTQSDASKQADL
T9 sequence (P34975 whole entry): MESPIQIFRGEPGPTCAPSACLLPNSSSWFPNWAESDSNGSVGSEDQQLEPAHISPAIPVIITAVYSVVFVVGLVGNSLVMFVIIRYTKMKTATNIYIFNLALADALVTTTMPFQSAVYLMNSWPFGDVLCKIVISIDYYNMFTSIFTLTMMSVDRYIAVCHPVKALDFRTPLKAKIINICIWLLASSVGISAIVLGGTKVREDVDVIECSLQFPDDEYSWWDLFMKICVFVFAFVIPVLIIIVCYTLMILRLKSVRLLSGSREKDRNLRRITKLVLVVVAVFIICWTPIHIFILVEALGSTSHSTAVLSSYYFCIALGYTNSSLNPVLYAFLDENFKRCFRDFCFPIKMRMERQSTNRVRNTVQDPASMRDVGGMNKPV
AR (h), sequence (P10275 whole entry): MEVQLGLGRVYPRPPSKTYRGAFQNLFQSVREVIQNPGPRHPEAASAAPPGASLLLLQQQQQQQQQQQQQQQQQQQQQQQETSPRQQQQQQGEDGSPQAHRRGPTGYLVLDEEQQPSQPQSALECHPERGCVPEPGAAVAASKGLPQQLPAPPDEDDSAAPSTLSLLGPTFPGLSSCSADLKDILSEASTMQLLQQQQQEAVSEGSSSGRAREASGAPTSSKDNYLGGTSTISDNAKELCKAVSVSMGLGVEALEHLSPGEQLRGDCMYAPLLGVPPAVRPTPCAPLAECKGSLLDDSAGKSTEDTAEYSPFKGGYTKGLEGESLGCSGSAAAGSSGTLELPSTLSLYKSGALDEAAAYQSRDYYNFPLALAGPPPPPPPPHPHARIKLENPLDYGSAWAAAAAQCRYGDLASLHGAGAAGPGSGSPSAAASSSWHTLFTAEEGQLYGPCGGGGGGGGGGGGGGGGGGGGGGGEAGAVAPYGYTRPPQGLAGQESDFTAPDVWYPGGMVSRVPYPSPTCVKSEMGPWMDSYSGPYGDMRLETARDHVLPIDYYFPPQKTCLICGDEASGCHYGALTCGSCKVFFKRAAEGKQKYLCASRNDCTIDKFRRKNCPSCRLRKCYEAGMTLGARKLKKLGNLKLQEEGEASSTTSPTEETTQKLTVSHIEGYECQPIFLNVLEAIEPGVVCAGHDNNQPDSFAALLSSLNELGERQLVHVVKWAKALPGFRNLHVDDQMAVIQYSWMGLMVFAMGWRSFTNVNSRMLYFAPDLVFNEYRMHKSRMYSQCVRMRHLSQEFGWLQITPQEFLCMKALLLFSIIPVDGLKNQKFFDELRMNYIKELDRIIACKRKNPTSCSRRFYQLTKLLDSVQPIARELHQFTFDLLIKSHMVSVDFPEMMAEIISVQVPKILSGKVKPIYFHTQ
T17 sequence (P11229 whole entry): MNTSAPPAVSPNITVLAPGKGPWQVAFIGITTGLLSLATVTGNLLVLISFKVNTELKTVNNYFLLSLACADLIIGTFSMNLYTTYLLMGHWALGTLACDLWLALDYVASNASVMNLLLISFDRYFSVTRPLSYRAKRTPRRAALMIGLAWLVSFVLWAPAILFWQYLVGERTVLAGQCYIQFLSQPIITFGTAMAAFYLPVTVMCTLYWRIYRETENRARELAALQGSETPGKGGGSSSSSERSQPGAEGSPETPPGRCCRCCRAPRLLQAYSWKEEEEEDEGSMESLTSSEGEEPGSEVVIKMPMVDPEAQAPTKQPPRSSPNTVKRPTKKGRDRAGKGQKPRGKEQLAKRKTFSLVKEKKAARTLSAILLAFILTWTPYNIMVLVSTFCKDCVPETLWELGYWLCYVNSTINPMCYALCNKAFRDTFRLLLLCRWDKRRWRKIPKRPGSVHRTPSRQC

One may read the inhibition as the drop in the measured response relative to a control, in per cent. `O=C(COc1ccc(Cl)c(F)c1)NC12CC(NC(=O)c3cnc(C(F)F)cn3)(C1)C2` [2BAct]: the inhibition at 10 µM was -0.9% on M3 (h); 12.2% on a2B (h); 12% on NK2 (h); 5.2% on CCK1(CCKA) (h); -4% at EP2 (h); -4.8% at CGRP (h). For the same compound, the inhibition at 10 µM on 5-HT2A (h) turned out to be 10.8%; on V1a (h) it was 6.4%; at k (KOP), 2.1%; at 5-HT3 (h), 9.2%; at m (MOP) (h), 3%; on ET-B (h) it was 6%. In addition, the inhibition at 10 µM was 4.2% at M2 (h); 24.8% on A2a (h); 2.1% on A1 (h); 36.2% on BZD (peripheral); 2.6% on M1 (h); -7.7% on Estrogen ER alpha (h). The inhibition at 10 µM at MAO-A was 10.2%; at AR (h), -0.2%; at d (DOP) (h), 2.9%; on b2 (h) it was 4.4%.
